Laboratory results published in patent US10882012B2, “Process for producing a nano resveratrol microemulsion system” (priority 2018, dated 2021).

Assay: Water solubility / water-dispersing ability
Type: physicochemical
Conditions: dispersed in water, bottle A versus bottle B, visual

- Water-dispersing ability (FIG. 1): insoluble in water
Compound: Oc1ccc(C=Cc2cc(O)cc(O)c2)cc1 [known 99% resveratrol, resveratrol]
